Entries after “also recorded” stand apart in the source; their conditions may differ. Non-standard residues stand in square brackets, D forms with d. *: point of attachment. CH2Cl = ClC*
Experiments:
hemorrhagic stroke = conditions: model of hemorrhagic stroke; cited from earlier work
ischemic stroke = conditions: rat model of ischemic stroke; cited from earlier work
[1] = tested on: retinal vascular permeability; conditions: angiotensin-II-treated rodents; Phipps et al. 2009; cited from earlier work
[2] = tested on: retinal vascular permeability; test: Angiotensin-II infusion model, retinal vascular permeability by vitreous fluorescein fluorophotometry; type: in vivo, Sprague-Dawley rats; conditions: twice-daily oral gavage for five days
Excerpt: Continuous infusion of the vasoconstrictor peptide angiotensin-II in Sprague-Dawley rats over 3-7 days using subcutaneously implanted Alzet minipumps results in elevated blood pressure, and is accompanied by increased retinal vascular permeability, which can be measured using the technique of vitreous fluorescein fluorophotometry, as described in the prior art (Clermont, A. C., et al (2006) Invest Ophthalmol V is Sci.; 47: 2701-8). […] Inhibition of the excess retinal vascular permeability in this animal model following administration of compounds of the present invention via oral, subcutaneous, topical or intravitreal routes thus provides evidence of inhibition of plasma kallikrein in vivo.

[3] = biological target: T1, Human plasma kallikrein (PK) (Homo sapiens, UniProt P03952); test: Human plasma kallikrein (PK) enzymatic inhibition assay, substrate H-D-Pro-Phe-Arg-pNA; type: biochemical; conditions: corrected Ki from Ki,app; 2 nM PK, 0.05 M HEPES pH 7.5, Km 0.33 mM
T1 construct: purchased Enzyme Research Laboratories (Gary, Ind.)
T1 sequence (P03952 391-638 limits assumed): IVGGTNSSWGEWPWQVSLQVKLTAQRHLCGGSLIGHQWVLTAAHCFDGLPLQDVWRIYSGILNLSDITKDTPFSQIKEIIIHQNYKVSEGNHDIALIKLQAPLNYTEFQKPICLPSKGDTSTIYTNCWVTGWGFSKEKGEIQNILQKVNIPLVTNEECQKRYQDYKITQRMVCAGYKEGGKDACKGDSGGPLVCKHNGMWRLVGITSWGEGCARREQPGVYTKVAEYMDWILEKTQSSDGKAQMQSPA
T1 sequence (P03952 20-390 partner limits assumed): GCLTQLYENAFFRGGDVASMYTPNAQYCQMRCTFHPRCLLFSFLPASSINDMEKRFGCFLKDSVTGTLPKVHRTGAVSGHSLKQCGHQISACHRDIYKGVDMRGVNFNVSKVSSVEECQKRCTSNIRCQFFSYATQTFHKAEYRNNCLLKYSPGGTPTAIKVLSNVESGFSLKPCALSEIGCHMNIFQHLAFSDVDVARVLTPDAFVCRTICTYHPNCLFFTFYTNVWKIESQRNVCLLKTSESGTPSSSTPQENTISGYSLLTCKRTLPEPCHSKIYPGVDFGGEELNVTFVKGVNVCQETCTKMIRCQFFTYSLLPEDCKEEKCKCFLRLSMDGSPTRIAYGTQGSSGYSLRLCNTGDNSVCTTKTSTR
Description: Human plasma kallikrein (PK) was obtained from Enzyme Research Laboratories (Gary, Ind.). The enzymatic activity of PK was assayed using the synthetic peptide substrate H-D-Pro-Phe-Arg-pNA (Bachem, Peninsula City, Calif.) with the cleavage of the substrate by the enzyme resulting in an increase in A405, measured using a Molecular Devices Vmax Kinetic Microplate Reader. The uninhibited (control) activity of PK was determined by adding 190 μl of PK solution (2 nM in 0.05 M HEPES, pH 7.5, 0.01% Triton X-100) to 10 μl of H-D-Pro-Phe-Arg-pNA (2 mM in DMSO) in individual microtiter plate wells, mixed immediately by shaking, and the rate of increase in absorbance at 405 nm (A405) determined over 120-180 sec. In parallel, compounds of general formula V were mixed in separate wells with the synthetic substrate to attain final concentrations of between 0.01-10 μM in the final 200 μl reaction mixture, and the reaction initiated by the addition of 190 μl of the PK solution. A diminished rate of cleavage in the presence of a compound of general formula V denotes inhibition of PK activity, and the apparent inhibition constant (Ki,app) of the interaction can be determined by using the following equation— Ki,app=[I]/(PKControl/PKI−1) where [I]=concentration of inhibitory compound, PKcontrol=rate of substrate cleavage by uninhibited PK, PKI=rate of substrate cleavage by PK in the presence of inhibitory compound.
The corrected Ki of the interaction can be obtained as follows from the calculated Ki,app— Ki=Ki,app/([S]/Km+1) Where [S]=concentration of synthetic substrate, and Km=Michaelis constant of synthetic substrate for PK, in this case determined experimentally to be 0.33 mM under these conditions.

arthritis = conditions: rat models of arthritis; cited from earlier work
hereditary angioedema = conditions: patients with hereditary angioedema; cited from earlier work
sepsis [4] = conditions: LPS or bacterial induced sepsis in animals; cited from earlier work
[5] = tested on: middle cerebral artery occlusion; conditions: mouse model of middle cerebral artery occlusion; cited from earlier work
sepsis [6] = conditions: sepsis patients; cited from earlier work

N=C(N)c1ccc(CNC(=O)c2cnn(Cc3ccccc3)c2)cc1 [ASP-440]
effect on expansion of intracerebral hemorrhage (hemorrhagic stroke): reduce
effect on infarction volume and cerebrovascular edema (ischemic stroke): reduce infarction volume and cerebrovascular edema
effect on retinal vascular permeability [1]: reduce retinal vascular permeability; also recorded: effective in reducing retinal vascular permeability

COC(=O)/N=C(\N)c1ccc(CNC(=O)c2cc(C)n(-c3ccc(F)cc3)c2C)cc1 [Example 4, (Z)-methyl amino-(4-((1-(4-fluorophenyl)-2,5-dimethyl-pyrrole-3-carbonylamino)methyl)phenyl)methylenecarbamate]
reduction of retinal vascular permeability [2]: 55%

Cc1cc(C(=O)NCc2ccc(C(=N)N)cc2)c(C)n1-c1ccc(F)cc1 [Example 11, N-[(4-carbamimidoylphenyl)methyl]-1-(4-fluorophenyl)-2,5-dimethyl-pyrrole-3-carboxamide]
Ki [3]: 13 nM

Cc1cc(C(=O)NCc2ccc(C(=N)N)cc2)c(C)n1-c1ccc(Cl)cc1 [Example 12, N-[(4-carbamimidoylphenyl)methyl]-1-(4-chlorophenyl)-2,5-dimethyl-pyrrole-3-carboxamide]
Ki [3]: 7 nM

COc1ccc(-n2c(C)cc(C(=O)NCc3ccc(C(=N)N)cc3)c2C)cc1 [Example 13, N-[(4-carbamimidoylphenyl)methyl]-1-(4-methoxyphenyl)-2,5-dimethyl-pyrrole-3-carboxamide]
Ki [3]: 17 nM

Cc1cc(C(=O)NCc2ccc(C(=N)N)cc2)c(C)n1-c1ccc2c(c1)OCCO2 [N-[(4-carbamimidoylphenyl)methyl]-1-(2,3-dihydro-1,4-benzodioxin-6-yl)-2,5-dimethyl-pyrrole-3-carboxamide]
Ki [3]: 14 nM

Cc1cc(C(=O)NCc2ccc(C(=N)N)cc2)c(C)n1-c1ccccn1 [N-[(4-carbamimidoylphenyl)methyl]-2,5-dimethyl-1-(2-pyridyl)pyrrole-3-carboxamide]
Ki [3]: 35 nM

Cc1cc(C(=O)NCc2ccc(C(=N)N)cc2)c(C)n1-c1cccnc1 [N-[(4-carbamimidoylphenyl)methyl]-2,5-dimethyl-1-(3-pyridyl)pyrrole-3-carboxamide]
Ki [3]: 46 nM

Cc1cc(C(=O)NCc2ccc(C(=N)N)cc2)c(C)n1-c1nccs1 [N-[(4-carbamimidoylphenyl)methyl]-2,5-dimethyl-1-thiazol-2-yl-pyrrole-3-carboxamide]
Ki [3]: 68 nM

Cl.NCC1CCC(C(=O)N[C@@H](Cc2ccccc2)C(=O)Nc2ccc(CC(=O)O)cc2)CC1 (stereo partly drawn) [PKSI-527]
effect on joint swelling (arthritis): reduce joint swelling

NC(N)=NCCC[C@@H](N)C(=O)N[C@@H](CCCN=C(N)N)C(=O)N1CCC[C@H]1C(=O)N1C[C@H](O)C[C@H]1C(=O)NCC(=O)N[C@@H](Cc1cccs1)C(=O)N[C@@H](CO)C(=O)N1Cc2ccccc2C[C@@H]1C(=O)N1[C@H](C(=O)N[C@@H](CCCN=C(N)N)C(=O)O)C[C@@H]2CCCC[C@@H]21 [icatibant]
effect on edema / hereditary angioedema (hereditary angioedema): effective in treating hereditary angioedema

H-[dP]-Phe-Arg-CH2Cl [reference compound]
effect on vascular permeability and lesions (sepsis [4]): reduce vascular permeability in multiple organs and reduce lesions

Hoe-140
effect on retinal vascular permeability [1]: reduce retinal vascular permeability

B1: C1-INH: the major endogenous inhibitor of PK (protein, UniProt P05155 23-500, looked up)
Plasma protease C1 inhibitor: NPNATSSSSQDPESLQDRGEGKVATTVISKMLFVEPILEVSSLPTTNSTTNSATKITANTTDEPTTQPTTEPTTQPTIQPTQPTTQLPTDSPTQPTTGSFCPGPVTLCSDLESHSTEAVLGDALVDFSLKLYHAFSAMKKVETNMAFSPFSIASLLTQVLLGAGENTKTNLESILSYPKDFTCVHQALKGFTTKGVTSVSQIFHSPDLAIRDTFVNASRTLYSSSPRVLSNNSDANLELINTWVAKNTNNKISRLLDSLPSDTRLVLLNAIYLSAKWKTTFDPKKTRMEPFHFKNSVIKVPMMNSKKYPVAHFIDQTLKAKVGQLQLSHNLSLVILVPQNLKHRLEDMEQALSPSVFKAIMEKLEMSKFQPTLLTLPRIKVTTSQDMLSIMEKLEFFDFSYDLNLCGLTEDPDLQVSAMQHQTVLELTETGVEAAAASAISVARTLLVFEVQQPFLFVLWDQQHKFPVFMGRVYDPRA
effect on infarct size [5]: reduced infarct size
clinical outcome (sepsis [6]): Clinical improvement
effect on vascular permeability and lesions (sepsis [4]): reduce vascular permeability in multiple organs and reduce lesions
